Source: EPA's ToxRefDB 2

Key:
rat [1] = settings: Prenatal developmental toxicity study, sprague dawley, Oral, Gavage/Intubation, dose end: 15 GD
rat [2] = settings: Combined chronic toxicity/carcinogenicity, sprague dawley, Oral, Feed, dose end: 24 month, group: systemic
rat [3] = settings: Multigenerational reproductive toxicity study, sprague dawley, Oral, Feed, dose end: 2 generation
rabbit [4] = settings: Prenatal developmental toxicity study, new zealand white, Oral, Gavage/Intubation, dose end: 19 GD
dog [5] = settings: Subchronic oral toxicity in nonrodent, beagle, Feed, dose end: 90 day, group: systemic, systemic / hematology / leukocyte (wbc) count differential / leukocyte (wbc) + systemic / hematology / mean corpuscular hemoglobin …
dog [6] = settings: Chronic toxicity; beagle; Oral; Feed; dose end: 52 week; group: systemic; systemic / clinical chemistry / aspartate aminotransferase (ast/sgot) / aspartate aminotransferase (ast/sgot) + systemic / clinical …
rat [7] = settings: Subchronic oral toxicity in rodents, sprague dawley, Feed, dose end: 90 day, group: systemic
rat [8] = settings: Prenatal developmental toxicity study, sprague dawley, Oral, Gavage/Intubation, dose end: 19 GD
rat [9] = settings: Combined chronic toxicity/carcinogenicity; fischer; Oral; Gavage/Intubation; dose end: 2 year; group: systemic; systemic / in life observation / body weight / body weight + systemic / in life observation / clinical signs / [other] + systemic / in life …
rat [10] = settings: Subchronic oral toxicity in rodents, fischer, Gavage/Intubation, dose end: 13 week, group: systemic
rat [11] = settings: Prenatal developmental toxicity study, sprague dawley, Oral, Gavage/Intubation, dose end: 15 GD; remark: listed apart in the source
rat [12] = settings: Combined chronic toxicity/carcinogenicity; fischer; Inhalation; Whole-Body; dose end: 105 week; group: systemic; systemic / pathology microscopic / nose / atrophy + systemic / pathology microscopic / nose / inflammation + systemic / pathology …
rat [13] = settings: Prenatal developmental toxicity study; wistar; Oral; Feed; dose end: 20 GD; group: maternal; systemic / in life observation / body weight / body weight gain
rabbit [14] = settings: Prenatal developmental toxicity study, new zealand white, Dermal, Topical, dose end: 18 GD, group: maternal
rat [15] = settings: Fertility (Segment I); sprague dawley; Oral; Gavage/Intubation; dose end: 13 PND; group: offspring; systemic / in life observation / body weight / offspring (pup) weight
rat [16] = settings: Subchronic oral toxicity in rodents, fischer, Water, dose end: 13 week, group: systemic
mouse [17] = settings: Subchronic oral toxicity in rodents, b6c3f1, Gavage/Intubation, dose end: 13 week, group: systemic
rat [18] = settings: Combined chronic toxicity/carcinogenicity; sprague dawley; Oral; Gavage/Intubation; dose end: 24 month; group: systemic; systemic / hematology / erythrocyte (rbc) count differential / erythrocyte (rbc) + systemic / hematology / hemoglobin (hgb) / hemoglobin (…
mouse [19] = settings: Combined chronic toxicity/carcinogenicity, b6c3f1, Oral, Gavage/Intubation, dose end: 2 year, group: systemic
rat [20] = settings: Subchronic oral toxicity in rodents, sprague dawley, Feed, dose end: 90 day, group: systemic; remark: listed apart in the source
rat [21] = settings: Combined chronic toxicity/carcinogenicity, sprague dawley, Oral, Feed, dose end: 104 week, group: systemic
dog [22] = settings: Chronic toxicity; beagle; Oral; Gavage/Intubation; dose end: 52 week; group: systemic; systemic / clinical chemistry / cholesterol / cholesterol + systemic / clinical chemistry / triglycerides / triglycerides + systemic / in …
mouse [23] = settings: Carcinogenicity; cd1; Oral; Feed; dose end: 18 month; group: systemic; systemic / in life observation / body weight / body weight + systemic / in life observation / body weight / body weight gain
[24] = group: developmental, systemic / in life observation / body weight / fetal weight + developmental / developmental malformation / bone / unossified + developmental…
[25] = group: maternal, systemic / in life observation / body weight / body weight gain + systemic / in life observation / clinical signs / salivation + systemic / …
[26] = systemic / in life observation / body weight / body weight
[27] = group: offspring, systemic / in life observation / body weight / offspring (pup) weight
[28] = group: parental, systemic / in life observation / body weight / body weight gain
[29] = group: developmental, systemic / in life observation / body weight / fetal weight
[30] = group: developmental, systemic / in life observation / body weight / fetal weight + developmental / developmental malformation / other / other
[31] = group: maternal, reproductive / reproductive performance / aborted / aborted + systemic / in life observation / food consumption / food consumption + …
[32] = systemic / clinical chemistry / globulins / globulins + systemic / clinical chemistry / glucose / glucose + systemic / in life observation…
[33] = systemic / organ weight / spleen / absolute + systemic / organ weight / spleen / relative to body weight
[34] = group: maternal, systemic / in life observation / body weight / body weight + systemic / in life observation / body weight / body weight gain + systemic / in…
[35] = systemic / organ weight / liver / relative to body weight
[36] = group: developmental, developmental / developmental malformation / brain / dilated cerebral ventricle
[37] = group: maternal, systemic / in life observation / clinical signs / altered breathing rate + systemic / in life observation / clinical signs / lethargy + …
[38] = systemic / in life observation / clinical signs / desquamation + systemic / in life observation / clinical signs / erythema + systemic / …
[39] = systemic / clinical chemistry / aspartate aminotransferase (ast/sgot) / aspartate aminotransferase (ast/sgot) + systemic / clinical …
[40] = systemic / hematology / reticulocyte / reticulocyte + systemic / organ weight / spleen / absolute + systemic / organ weight / spleen / …
[41] = systemic / hematology / methemoglobin / methemoglobin + systemic / hematology / reticulocyte / reticulocyte + systemic / pathology …
[42] = systemic / pathology microscopic / bone marrow / hypercellularity
[43] = systemic / organ weight / liver / absolute + systemic / organ weight / liver / relative to body weight + systemic / organ weight / heart / …
[44] = systemic / organ weight / liver / relative to body weight + systemic / clinical chemistry / cholesterol / cholesterol + systemic / organ …
[45] = systemic / organ weight / testes / relative to body weight

## COC(=O)c1ccccc1S(=O)(=O)NC(=O)N(C)c1nc(C)nc(OC)n1 [Tribenuron-methyl]
Rat [1]; group: developmental, systemic / in life observation / body weight / fetal weight + developmental / developmental malformation / bone / unossified
  LOAEL: 125 mg/kg/day
Rat [1]; [24]
  LEL: 125 mg/kg/day
  NEL: 20 mg/kg/day
  NOAEL: 20 mg/kg/day
Rat [1]; [25]
  LEL: 125 mg/kg/day
  LOAEL: 125 mg/kg/day
  NEL: 20 mg/kg/day
  NOAEL: 20 mg/kg/day
Rat [2]; [26]
  LEL: 1.25 mg/kg/day
  LOAEL: 12.5 mg/kg/day
  NEL: < 1.25 mg/kg/day
Rat [2]; systemic / in life observation / body weight / body weight + systemic / pathology microscopic / mammary gland / adenocarcinoma + systemic / …
  NOAEL: 1.25 mg/kg/day
Rat [3]; [27]
  LEL: 1.9 mg/kg/day
  NEL: < 1.9 mg/kg/day
Rat [3]; group: offspring, systemic / in life observation / body weight / offspring (pup) weight gain
  NOAEL: 1.9 mg/kg/day
Rat [3]; group: offspring, systemic / in life observation / body weight / offspring (pup) weight gain + systemic / in life observation / body weight / offspring (pup) …
  LOAEL: 19 mg/kg/day
Rat [3]; [28]
  LEL: 19 mg/kg/day
  LOAEL: 21 mg/kg/day
  NEL: 1.9 mg/kg/day
Rat [3]; group: parental, systemic / in life observation / body weight / body weight gain + systemic / in life observation / body weight / body weight
  NOAEL: 2.2 mg/kg/day
Rabbit [4]; [29]
  LOAEL: 80 mg/kg/day
Rabbit [4]; [30]
  LEL: 80 mg/kg/day
  NEL: 20 mg/kg/day
  NOAEL: 20 mg/kg/day
Rabbit [4]; group: maternal, reproductive / reproductive performance / aborted / aborted + systemic / in life observation / food consumption / food consumption
  LOAEL: 80 mg/kg/day
Rabbit [4]; [31]
  LEL: 80 mg/kg/day
  NEL: 20 mg/kg/day
  NOAEL: 20 mg/kg/day
Dog [5]
  LEL: 73.3 mg/kg/day
  LOAEL: > 73.3 mg/kg/day
  NEL: 14.9 mg/kg/day
  NOAEL: ≥ 73.3 mg/kg/day
Dog [6]
  LEL: 8.16 mg/kg/day
  LOAEL: 8.16 mg/kg/day
  NEL: 0.79 mg/kg/day
  NOAEL: 0.79 mg/kg/day
Rat [7]; [32]
  LOAEL: 118 mg/kg/day
  NOAEL: 7 mg/kg/day
Rat [7]; [33]
  LEL: 8 mg/kg/day
  NEL: < 8 mg/kg/day

## [N-]=[N+]=[N-].[Na+] [Sodium azide]
Rat [8]; [29]
  LEL: 17.5 mg/kg/day
  LOAEL: > 17.5 mg/kg/day
  NEL: 5 mg/kg/day
  NOAEL: ≥ 17.5 mg/kg/day
Rat [8]; [34]
  LEL: 17.5 mg/kg/day
  LOAEL: > 17.5 mg/kg/day
  NEL: 5 mg/kg/day
  NOAEL: ≥ 17.5 mg/kg/day
Rat [9]
  LEL: 10 mg/kg/day
  LOAEL: 10 mg/kg/day
  NEL: 5 mg/kg/day
  NOAEL: 5 mg/kg/day
Rat [10]; systemic / in life observation / body weight / body weight gain + systemic / in life observation / clinical signs / hunched posture
  LOAEL: 10 mg/kg/day
Rat [10]; systemic / in life observation / body weight / body weight gain + systemic / in life observation / clinical signs / hunched posture + …
  NOAEL: 5 mg/kg/day
Rat [10]; [35]
  LEL: 1.25 mg/kg/day
  NEL: < 1.25 mg/kg/day

## c1ccc2ccccc2c1 [Naphthalene]
Rat [11]; [36]
  LEL: 450 mg/kg/day
  LOAEL: > 450 mg/kg/day
  NEL: 150 mg/kg/day
  NOAEL: ≥ 450 mg/kg/day
Rat [11]; [37]
  LEL: 50 mg/kg/day
  LOAEL: 50 mg/kg/day
  NEL: < 50 mg/kg/day
  NOAEL: < 50 mg/kg/day
Rat [12]
  LEL: 3.6 mg/kg/day
  LOAEL: 3.6 mg/kg/day
  NEL: < 3.6 mg/kg/day
  NOAEL: < 3.6 mg/kg/day

## CCCCOCCOCCO [2-(2-Butoxyethoxy)ethanol]
Rat [13]
  LEL: 25 mg/kg/day
  LOAEL: > 633 mg/kg/day
  NEL: < 25 mg/kg/day
  NOAEL: ≥ 633 mg/kg/day
Rabbit [14]; systemic / in life observation / clinical signs / desquamation + systemic / in life observation / clinical signs / erythema
  LEL: 300 mg/kg/day
Rabbit [14]; [38]
  LOAEL: > 1000 mg/kg/day
  NEL: 100 mg/kg/day
  NOAEL: ≥ 1000 mg/kg/day
Rat [15]
  LEL: 1000 mg/kg/day
  LOAEL: > 1000 mg/kg/day
  NEL: 500 mg/kg/day
  NOAEL: ≥ 1000 mg/kg/day
Rat [16]; [39]
  LOAEL: > 1000 mg/kg/day
  NEL: 50 mg/kg/day
  NOAEL: ≥ 1000 mg/kg/day
Rat [16]; systemic / hematology / erythrocyte (rbc) count differential / erythrocyte (rbc) + systemic / hematology / hematocrit (hct) / hematocrit (…
  LEL: 250 mg/kg/day

## Nc1ccc([N+](=O)[O-])cc1 [4-Nitroaniline]
Mouse [17]; [40]
  LOAEL: 30 mg/kg/day
  NEL: 3 mg/kg/day
  NOAEL: 10 mg/kg/day
Mouse [17]; systemic / pathology microscopic / spleen / hematopoietic cell proliferation + systemic / organ weight / liver / relative to body weight + …
  LEL: 10 mg/kg/day
Rat [18]
  LEL: 1.5 mg/kg/day
  LOAEL: > 9 mg/kg/day
  NEL: 0.25 mg/kg/day
  NOAEL: ≥ 9 mg/kg/day
Mouse [19]; [41]
  LOAEL: 30 mg/kg/day
  NOAEL: 3 mg/kg/day
Mouse [19]; [42]
  LEL: 3 mg/kg/day
  NEL: < 3 mg/kg/day

## O=C(NC(=O)c1c(F)cccc1F)Nc1ccc(CON=C(c2ccc(Cl)cc2)C2CC2)cc1 [Flucycloxuron]
Rat [20]; [43]
  LEL: 200 mg/kg/day
  NEL: < 200 mg/kg/day
Rat [20]; systemic / pathology microscopic / liver / necrosis + systemic / pathology microscopic / spleen / pigmentation + systemic / clinical …
  NOAEL: 200 mg/kg/day
Rat [20]; systemic / pathology microscopic / liver / necrosis + systemic / pathology microscopic / spleen / pigmentation + systemic / organ weight / …
  LOAEL: 2000 mg/kg/day
Rat [21]; [44]
  LOAEL: > 7000 mg/kg/day
  NOAEL: ≥ 7000 mg/kg/day
Rat [21]; [45]
  LEL: 120 mg/kg/day
  NEL: < 120 mg/kg/day
Dog [22]
  LEL: 10 mg/kg/day
  LOAEL: 10 mg/kg/day
  NEL: < 10 mg/kg/day
  NOAEL: < 10 mg/kg/day
Mouse [23]
  LEL: 73 mg/kg/day
  LOAEL: 73 mg/kg/day
  NEL: 5.3 mg/kg/day
  NOAEL: 5.3 mg/kg/day
